According to patent US5494932A, “Sulfonic stilbene derivatives in the treatment of viral disease” (Merrell Dow Pharmaceuticals Inc., priority 1991, dated 1996):
Read-outs that look alike come from different tables or passages of the source.

Experiments:
[1] = test system: HIV-1 strain GB8 in JM cells; assay: Acute HIV-1 (GB8) infection of JM cells: syncytial counts and p24 antigen; assay type: cell-based, HIV-1 (human T cell line JM); conditions: for Mean Syncytial Counts: at day 4 p.i.
Excerpt: (§1) When evaluated in the human T cell line JM acutely infected with the GB8 virus, DIDS, H2 DIDS and SITS (Table I) suppressed virus-induced multinucleated giant cell formation (syncytia). […] We also examined the antiviral properties of these compounds in a second host-cell/virus system, i.e., the highly CD4+ C8166 cells infected with the Haitian strain of HIV-1, RF.
(§2) The cell lines used were the semi-mature human lymphoblastoid leukemia T cell line JM, the human T-lymphoblastoid C8166 cell line, the human cutaneous T cell lymphoma line H9 and, the human T cell transformed line MT-4. Stocks of HIV-1 strains RF and GB8 (kindly provided by Dr. Graham Farrar, Center for Applied Microbiological Research, Porton Dawn, England) were prepared from chronically infected H9 cells and acutely infected JM cells, respectively. Virus stocks consisted of cell-free growth medium (RPMI 1640 plus 10% fetal calf serum) containing freshly shed virus. Virus titres were determined by a standard plaque reduction assay.
Virus stocks (strains RF or GB8) were diluted into growth medium containing various concentrations of DIDS, H2 DIDS or SITS. The required number of cells were then immediately added and the virus allowed to absorb for 2 hours at 37° C. to give a multiplicity of infection (MOI) of 0.001 infectious units/cell. The virus-infected cells were pelleted, washed three times in phosphate buffered saline (PBS), and resuspended in fresh growth medium containing the appropriate concentrations of stilbene disulfonic acids. Cells were then distributed into 24-well culture plates (Falcon) and assayed as described below for virus infection. Alternatively, cells were first infected with HIV-1 (strains RF or GB8) for 2 hours at 37° C. at the above MOI. After extensive washing, cells were replated into fresh growth medium containing various concentrations of stilbene disulfonic acids. In the above experiments, syncytia were scored between 2 and 4 days postinfection (p.i.) in triplicate using an Olympus CK2 inverted microscope. The culture fluids were recovered between 3 and 5 days p.i., clarified by low speed centrifugation (2,000 rpm) for 5 minutes and the level of HIV-1 p24 core antigen in the supernatants was determined by p24 antigen ELISA (Coulter). The concentrations of stilbene disulfonic acids giving 50% inhibition of HIV-1 growth (IC50) were determined from the dose-response curves by linear regression analysis.
Protocol: JM cells were infected with HIV-1 to give a multiplicity of infection of 0.001. Virus adsorption was for 2 hours at room temperature. The cells were washed and distributed into wells containing different concentrations of test compounds and incubated. After 2 days the cells were observed and syncytia were counted. The cell-free supernatant fluids were harvested at 4 and 6 days post infection and assayed for levels of p24 viral core antigen and after 6 days the supernatants were also titrated to determine levels of infectivity.

[2] = test system: virus-induced cell fusion (gp120-CD4 dependent); assay: Anti-syncytial cocultivation assay: H9 cells chronically infected with HIV-1 RF mixed with uninfected C8166 cells; assay type: cell-based, HIV-1 RF; human H9 and C8166 cells; conditions: 100 μg/ml
Excerpt: Syncytial cell formation depends on the interaction of gp120, expressed in the membranes of infected cells, with the CD4 antigen on neighboring cells (Camerini and Seed, 1990). We utilized a cell cocultivation model to examine the effect of the stilbene disulfonic acids on the gp120-CD4 dependent fusion process. This system consists of mixing H9 cells chronically infected with HIV-1 RF (gp120^+ cells) with uninfected C8166 cells (CD4^+ cells) as the fusion indicator. In this assay, cell fusion occurred within 2 to 3 hours of mixing at 37° C. and substantial syncytia were observed after a further 3 to 4 hours (FIG. 1, Panel A). […] These findings with the sulfated polysaccharides were consistent with a previous report (Montefiori et al., 1990).
The effect of the stilbene disulfonic acids and various sulfated polysaccharides on virus-induced cell fusion. In this assay, 10^5 H9 cells, chronically infected with the HIV-1 strain RF, were cocultured with 10^5 uninfected C8166 cells in the absence and presence of the test compounds. FIG. 1A: Positive control, no compound addition; FIG. 1B: 100 μg/ml DIDS; FIG. 1C: 100 μg/ml SITS; FIG. 1D: positive control; FIG. 1E: 10 μg/ml 500,000 MW dextran sulfate; FIG. 1F: 250 μg/ml heparin.
CD4^+ uninfected C8166 cells were seeded into 24-well trays ([…]) that contained growth medium and various concentrations of test compounds. H9 cells, chronically infected with the RF strain of HIV-1, were washed and then added as a source of gp120^+ cells at 10^5 cells/well except for the noncytopathic control: those wells received uninfected H9 cells. The trays were then incubated at 37° C. and the cocultures were observed between 1 and 6 hours p.i. Syncytia were recorded on photographic film.
Protocol: H9 cells chronically infected with RF strain of HIV-1 and uninfected C8166 cells were mixed in the presence of either DIDS, SITS, H2 DIDS, dextran sulfate, or heparin (100 μg/ml). The cells were observed after 2, 31/2 and 51/2 hours and the amount of cell fusion quantified.
Protocol: H9 cells chronically inected with HIV-1 and uninfected C8166 cells were mixed in the presence of either DIDS, SITS, H2 DIDS, dextran sulfate, heparin (at 100 μg/ml), OKT4 or OKT4A (at a 1/50 dilution). The cells were observed after 4 hours and the amount of cell fusion quantitied. OKT4 and OKT4A are monoclonal antibodies that bined the CD4 cell surface antigen.

[3] = test system: MT-4 cells; assay: Cytotoxicity in MT-4 cells, tetrazolium reduction assay; assay type: cell-based, human
[4] = test system: HIV-1 strain RF in MT-4 cells; assay: Growth of HIV-1 RF in MT-4 cells; assay type: cell-based, HIV-1 (human MT-4 cells)
Excerpt: as §1, §2

[5] = Human immunodeficiency virus 1, 96 h, read-out: p24 4 days p.i., % Control
[6] = Human immunodeficiency virus 1, 96 h, 12.5 μg/ml, read-out: p24 4 days p.i., % Control
[7] = Human immunodeficiency virus 1, 96 h, 100 μg/ml, read-out: p24 4 days p.i., % Control
[8] = Human immunodeficiency virus 1, 144 h, read-out: P24 Antigen % Virus Control
[9] = Human immunodeficiency virus 1, 144 h, 12.5 μg/ml, read-out: p24 6 days p.i., % Control
[10] = Human immunodeficiency virus 1, 144 h, 25 μg/ml, read-out: p24 6 days p.i., % Control
[11] = Human immunodeficiency virus 1, 144 h, 50 µg/mL, GB8 in JM cells, day 6 p.i., read-out: P24 Antigen % Virus Control
[12] = Human immunodeficiency virus 1, 144 h, 50 μg/ml, read-out: p24 6 days p.i., % Control
[13] = Human immunodeficiency virus 1, 144 h, 100 µg/mL, GB8 in JM cells, day 6 p.i., read-out: P24 Antigen % Virus Control
[14] = Human immunodeficiency virus 1, 144 h, 100 μg/ml, read-out: p24 6 days p.i., % Control
[15] = JM cells acutely infected with GB8

Compound	Mean Syncytial Counts 2 Days p.i. ([1]; 3 μg/ml)	Mean Syncytial Counts ([1]; 6 μM)	Mean Syncytial Counts 2 Days p.i. ([1]; 6 μg/ml)	Mean Syncytial Counts ([1]; 12 μM)	Mean Syncytial Counts 2 Days p.i. ([1]; 12.5 μg/ml)	p24 4 days p.i. ([1]; 12.5 μg/ml)	p24 6 days p.i. ([1]; 12.5 μg/ml)	Mean Syncytial Counts ([1]; 25 μM)	Mean Syncytial Counts 2 Days p.i. ([1]; 25 μg/ml)	p24 4 days p.i. ([1]; 25 μg/ml)	p24 6 days p.i. ([1]; 25 μg/ml)	Mean Syncytial Counts ([1]; 50 μM)	Mean Syncytial Counts 2 Days p.i. ([1]; 50 μg/ml)	p24 4 days p.i. ([1]; 50 μg/ml)	p24 6 days p.i. ([1]; 50 μg/ml)	Mean Syncytial Counts ([1]; 100 μM)	Mean Syncytial Counts 2 Days p.i. ([1]; 100 μg/ml)	p24 6 days p.i. ([1]; 100 μg/ml)	Mean Syncytial Counts ([1]; 200 μM)	activity at 12.5 µg/mL [1, 6]	other results
O=S(=O)(O)c1cc(N=C=S)ccc1CCc1ccc(N=C=S)cc1S(=O)(=O)O [H2 DIDS, 4,4'-diisothiocyanatodihydrostilbene-2,2'-disulfonic acid]	107	107	97	97	71	94000 pg/mL	8.51 × 10^6 pg/m.	71	7	32000 pg/mL	2.66 × 10^6 pg/m.	7	0	70 pg/mL	3.77 × 10^2 pg/m.	0	0	6.48 × 10^2 pg/m.	0	> 100%	activity at 50 µg/mL [1, 5]: 0.01%; activity at 25 µg/mL ([1]; Human immunodeficiency virus 1, 96 h, 25 μg/ml, read-out: p24 4 days p.i., % Control): 43%; activity at 100 µg/mL [1, 7]: 0%; activity at 200 µM [1, 8]: 0%; activity at 12 µg/mL ([1]; Human immunodeficiency virus 1, 144 h, 12 µg/mL, GB8 in JM cells, day 6 p.i., read-out: P24 Antigen % Virus Control): 100%; activity at 12.5 µg/mL [1, 9]: > 100%; activity at 25 µg/mL ([1]; Human immunodeficiency virus 1, 144 h, 25 µg/mL, GB8 in JM cells, day 6 p.i., read-out: P24 Antigen % Virus Control): 100%; activity at 25 µg/mL [1, 10]: > 100%; activity at 50 µg/mL [1, 11]: 43%; activity at 50 µg/mL [1, 12]: 0.02%; activity at 100 µg/mL [1, 13]: 0.01%; activity at 100 µg/mL [1, 14]: 0.03%; Syncytia after 2 hrs ([2]; virus control ++): 0; Syncytia after 3 1/2 hrs ([2]; virus control +++): 0; Syncytia after 5 1/2 hrs ([2]; virus control +++): 0; cytotoxicity at antiviral concentrations [3]: noncytotoxic
CC(=O)Nc1ccc(C=Cc2ccc(N=C=S)cc2S(=O)(=O)O)c(S(=O)(=O)O)c1 [SITS, 4-acetamido-4'-isothiocyanatostilbene-2,2'-disulfonic acid]	93	93	72	72	63	185000 pg/mL	1.51 × 10^6 pg/m.	63	63	153000 pg/mL	1.26 × 10^6 pg/m.	63	15	62500 pg/mL	2.45 × 10^5 pg/m.	15	0	2.2 × 10^4 pg/m.	0	100%	p24 4 days p.i. ([1]; 100 μg/ml): 1140 pg/mL; activity at 25 µg/mL [1, 5]: 100%; activity at 50 µg/mL ([1]; Human immunodeficiency virus 1, 96 h, 50 μg/ml, read-out: p24 4 days p.i., % Control): 85%; activity at 100 µg/mL [1, 7]: 1.6%; activity at 200 µM [1, 8]: 1.6%; activity at 12.5 µg/mL [1, 9]: 69%; activity at 25 µg/mL [1, 10]: 58%; activity at 50 µg/mL [1, 11]: 100%; activity at 50 µg/mL [1, 12]: 11.2%; activity at 100 µg/mL [1, 13]: 85%; activity at 100 µg/mL [1, 14]: 1%; inhibition of p24 viral core antigen [1, 15]: dose-dependent inhibition; virus-induced multinucleated giant cell formation (syncytia) [1, 15]: suppressed; order of antiviral potency ([1]; in all three host cell/virus systems (JM/GB8, C8166/RF, MT-4/RF)): DIDS>H2 DIDS>>SITS; growth of RF in MT-4 cells / antiviral activity [4]: weak antiviral activity
